What was measured:
[1] = target: Mitogen-activated protein kinase kinase kinase 5 (Homo sapiens) (UniProt Q99683); settings: Compound concentration 1000.0 nM
[2] = target: Aurora kinase A (Homo sapiens) (UniProt O14965); settings: Compound concentration 1000.0 nM
[3] = target: Cytoplasmic tyrosine-protein kinase BMX (Homo sapiens) (UniProt P51813); settings: Compound concentration 1000.0 nM
[4] = target: Cyclin-dependent kinase 11B (Homo sapiens) (UniProt P21127); settings: Compound concentration 1000.0 nM
[5] = target: Cyclin-dependent kinase 9 (Homo sapiens) (UniProt P50750); settings: Compound concentration 1000.0 nM
[6] = target: Dual specificity protein kinase CLK2 (Homo sapiens) (UniProt P49760); settings: Compound concentration 1000.0 nM
[7] = target: Dual specificity protein kinase CLK4 (Homo sapiens) (UniProt Q9HAZ1); settings: Compound concentration 1000.0 nM
[8] = test system: Epidermal growth factor receptor (Homo sapiens), P00533 [UNDEFINED MUTATION]; settings: Compound concentration 1000.0 nM
[9] = target: Ephrin type-A receptor 6 (Homo sapiens) (UniProt Q9UF33); settings: Compound concentration 1000.0 nM
[10] = target: Tyrosine-protein kinase Fer (Homo sapiens) (UniProt P16591); settings: Compound concentration 1000.0 nM
[11] = target: Fibroblast growth factor receptor 1 (Homo sapiens) (UniProt P11362); settings: Compound concentration 1000.0 nM
[12] = target: Vascular endothelial growth factor receptor 1 (Homo sapiens) (UniProt P17948); settings: Compound concentration 1000.0 nM
[13] = target: Receptor-type tyrosine-protein kinase FLT3 (Homo sapiens) (UniProt P36888); settings: Compound concentration 1000.0 nM
[14] = test system: Receptor-type tyrosine-protein kinase FLT3 (Homo sapiens), P36888 [UNDEFINED MUTATION]; settings: Compound concentration 1000.0 nM
[15] = test system: Mast/stem cell growth factor receptor Kit (Homo sapiens), P10721 [V559D]; settings: Compound concentration 1000.0 nM
[16] = target: Leucine-rich repeat serine/threonine-protein kinase 2 (Homo sapiens) (UniProt Q5S007); settings: Compound concentration 1000.0 nM
[17] = target: Mitogen-activated protein kinase kinase kinase 1 (Homo sapiens) (UniProt Q13233); settings: Compound concentration 1000.0 nM
[18] = target: Mitogen-activated protein kinase kinase kinase kinase 2 (Homo sapiens) (UniProt Q12851); settings: Compound concentration 1000.0 nM
[19] = target: Dual specificity mitogen-activated protein kinase kinase 2 (Homo sapiens) (UniProt P36507); settings: Compound concentration 1000.0 nM
[20] = target: Hepatocyte growth factor receptor (Homo sapiens) (UniProt P08581); settings: Compound concentration 1000.0 nM
[21] = target: Serine/threonine-protein kinase Nek6 (Homo sapiens) (UniProt Q9HC98); settings: Compound concentration 1000.0 nM
[22] = target: Cyclin-dependent kinase 16 (Homo sapiens) (UniProt Q00536); settings: Compound concentration 1000.0 nM
[23] = target: 3-phosphoinositide-dependent protein kinase 1 (Homo sapiens) (UniProt O15530); settings: Compound concentration 1000.0 nM
[24] = test system: Phosphatidylinositol 4,5-bisphosphate 3-kinase catalytic subunit alpha isoform (Homo sapiens), P42336 [E542K]; settings: Compound concentration 1000.0 nM
[25] = target: Phosphatidylinositol 5-phosphate 4-kinase type-2 beta (Homo sapiens) (UniProt P78356); settings: Compound concentration 1000.0 nM
[26] = target: Serine/threonine-protein kinase PLK3 (Homo sapiens) (UniProt Q9H4B4); settings: Compound concentration 1000.0 nM
[27] = target: Serine/threonine-protein kinase D2 (Homo sapiens) (UniProt Q9BZL6); settings: Compound concentration 1000.0 nM
[28] = target: Proto-oncogene tyrosine-protein kinase receptor Ret (Homo sapiens) (UniProt P07949); settings: Compound concentration 1000.0 nM
[29] = test system: Proto-oncogene tyrosine-protein kinase receptor Ret (Homo sapiens), P07949 [M918T]; settings: Compound concentration 1000.0 nM
[30] = target: Dual serine/threonine and tyrosine protein kinase (Homo sapiens) (UniProt Q6XUX3); settings: Compound concentration 1000.0 nM
[31] = target: Proto-oncogene tyrosine-protein kinase ROS (Homo sapiens) (UniProt P08922); settings: Compound concentration 1000.0 nM
[32] = target: Ribosomal protein S6 kinase alpha-4 (Homo sapiens) (UniProt O75676); settings: Compound concentration 1000.0 nM
[33] = target: Ribosomal protein S6 kinase alpha-1 (Homo sapiens) (UniProt Q15418); settings: Compound concentration 1000.0 nM
[34] = target: Ribosomal protein S6 kinase alpha-3 (Homo sapiens) (UniProt P51812); settings: Compound concentration 1000.0 nM
[35] = target: Ribosomal protein S6 kinase alpha-6 (Homo sapiens) (UniProt Q9UK32); settings: Compound concentration 1000.0 nM
[36] = target: Proto-oncogene tyrosine-protein kinase Src (Homo sapiens) (UniProt P12931); settings: Compound concentration 1000.0 nM
[37] = target: SRSF protein kinase 1 (Homo sapiens) (UniProt Q96SB4); settings: Compound concentration 1000.0 nM
[38] = target: Serine/threonine-protein kinase 33 (Homo sapiens) (UniProt Q9BYT3); settings: Compound concentration 1000.0 nM
[39] = target: Serine/threonine-protein kinase TAO2 (Homo sapiens) (UniProt Q9UL54); settings: Compound concentration 1000.0 nM
[40] = target: TGF-beta receptor type-2 (Homo sapiens) (UniProt P37173); settings: Compound concentration 1000.0 nM
[41] = target: Serine/threonine-protein kinase tousled-like 1 (Homo sapiens) (UniProt Q9UKI8); settings: Compound concentration 1000.0 nM
[42] = target: Non-receptor tyrosine-protein kinase TNK1 (Homo sapiens) (UniProt Q13470); settings: Compound concentration 1000.0 nM
[43] = target: Serine/threonine-protein kinase 32C (Homo sapiens) (UniProt Q86UX6); settings: Compound concentration 1000.0 nM
[44] = target: Histamine H2 receptor (Homo sapiens) (UniProt P25021); settings: Compound concentration 10.0 uM
[45] = target: Muscarinic acetylcholine receptor M2 (Homo sapiens) (UniProt P08172); settings: Compound concentration 10.0 uM

Chain of Cyclin-dependent kinase 9 (Homo sapiens) (P50750 whole entry): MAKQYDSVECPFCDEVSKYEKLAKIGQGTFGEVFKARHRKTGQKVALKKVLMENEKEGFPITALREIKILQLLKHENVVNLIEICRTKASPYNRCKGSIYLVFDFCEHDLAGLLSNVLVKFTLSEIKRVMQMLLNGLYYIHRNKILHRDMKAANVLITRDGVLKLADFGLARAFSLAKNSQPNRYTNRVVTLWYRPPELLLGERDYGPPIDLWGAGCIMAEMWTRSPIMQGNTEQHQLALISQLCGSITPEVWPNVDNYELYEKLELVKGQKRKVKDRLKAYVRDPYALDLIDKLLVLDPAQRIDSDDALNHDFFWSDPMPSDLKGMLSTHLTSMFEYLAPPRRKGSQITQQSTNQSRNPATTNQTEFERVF
Chain of Non-receptor tyrosine-protein kinase TNK1 (Homo sapiens) (Q13470 whole entry): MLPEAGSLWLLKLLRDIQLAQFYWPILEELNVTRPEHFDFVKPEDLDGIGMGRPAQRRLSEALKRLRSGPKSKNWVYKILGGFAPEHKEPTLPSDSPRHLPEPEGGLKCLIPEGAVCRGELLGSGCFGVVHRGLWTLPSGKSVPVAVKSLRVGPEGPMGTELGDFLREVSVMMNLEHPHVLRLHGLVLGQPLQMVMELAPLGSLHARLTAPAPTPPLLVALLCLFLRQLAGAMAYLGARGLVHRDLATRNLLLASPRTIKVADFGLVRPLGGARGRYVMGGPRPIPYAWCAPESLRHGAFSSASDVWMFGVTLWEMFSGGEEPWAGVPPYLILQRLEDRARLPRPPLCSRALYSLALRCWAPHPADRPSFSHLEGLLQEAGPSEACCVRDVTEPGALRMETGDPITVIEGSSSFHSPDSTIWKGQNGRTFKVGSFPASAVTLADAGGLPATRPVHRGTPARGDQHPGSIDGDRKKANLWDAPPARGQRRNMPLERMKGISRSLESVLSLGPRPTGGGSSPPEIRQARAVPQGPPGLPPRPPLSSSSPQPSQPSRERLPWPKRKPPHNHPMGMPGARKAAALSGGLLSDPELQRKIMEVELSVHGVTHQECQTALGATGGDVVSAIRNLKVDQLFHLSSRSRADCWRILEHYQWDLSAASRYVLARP
Chain of Ribosomal protein S6 kinase alpha-1 (Homo sapiens) (Q15418 whole entry): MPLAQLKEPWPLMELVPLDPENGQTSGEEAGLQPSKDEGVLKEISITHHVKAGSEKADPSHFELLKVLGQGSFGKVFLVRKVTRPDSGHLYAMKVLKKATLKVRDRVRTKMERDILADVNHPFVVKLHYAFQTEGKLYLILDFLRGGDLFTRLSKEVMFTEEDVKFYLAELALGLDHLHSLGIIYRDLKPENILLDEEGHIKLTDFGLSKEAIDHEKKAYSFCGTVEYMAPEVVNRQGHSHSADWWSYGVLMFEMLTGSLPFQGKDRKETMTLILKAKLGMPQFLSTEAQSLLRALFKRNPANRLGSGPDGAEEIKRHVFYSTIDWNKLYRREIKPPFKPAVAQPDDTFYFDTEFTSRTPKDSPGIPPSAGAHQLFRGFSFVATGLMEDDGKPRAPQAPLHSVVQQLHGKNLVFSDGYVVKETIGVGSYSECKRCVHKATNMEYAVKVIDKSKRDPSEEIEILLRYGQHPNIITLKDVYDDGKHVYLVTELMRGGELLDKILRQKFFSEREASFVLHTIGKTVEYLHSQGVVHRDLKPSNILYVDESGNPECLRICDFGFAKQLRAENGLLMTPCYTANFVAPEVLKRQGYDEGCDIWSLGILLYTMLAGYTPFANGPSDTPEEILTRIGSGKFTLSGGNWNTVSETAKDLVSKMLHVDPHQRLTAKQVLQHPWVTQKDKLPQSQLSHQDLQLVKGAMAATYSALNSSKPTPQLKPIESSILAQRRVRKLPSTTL
Chain of Cytoplasmic tyrosine-protein kinase BMX (Homo sapiens) (P51813 whole entry): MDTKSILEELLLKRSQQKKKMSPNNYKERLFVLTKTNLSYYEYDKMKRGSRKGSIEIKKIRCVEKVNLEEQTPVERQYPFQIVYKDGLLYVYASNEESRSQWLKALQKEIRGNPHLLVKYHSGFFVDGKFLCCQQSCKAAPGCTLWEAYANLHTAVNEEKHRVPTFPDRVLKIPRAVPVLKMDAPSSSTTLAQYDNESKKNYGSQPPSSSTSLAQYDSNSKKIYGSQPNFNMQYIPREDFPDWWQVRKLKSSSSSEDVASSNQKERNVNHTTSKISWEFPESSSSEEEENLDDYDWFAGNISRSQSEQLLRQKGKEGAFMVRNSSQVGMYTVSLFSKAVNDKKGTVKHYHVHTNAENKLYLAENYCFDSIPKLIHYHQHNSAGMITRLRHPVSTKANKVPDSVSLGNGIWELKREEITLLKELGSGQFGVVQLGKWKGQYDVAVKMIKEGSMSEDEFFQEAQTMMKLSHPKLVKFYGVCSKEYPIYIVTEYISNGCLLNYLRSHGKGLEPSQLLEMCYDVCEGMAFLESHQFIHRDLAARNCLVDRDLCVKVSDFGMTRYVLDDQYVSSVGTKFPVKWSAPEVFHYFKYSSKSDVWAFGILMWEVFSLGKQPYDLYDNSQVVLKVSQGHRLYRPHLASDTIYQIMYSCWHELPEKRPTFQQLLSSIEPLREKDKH
Chain of Serine/threonine-protein kinase 33 (Homo sapiens) (Q9BYT3 whole entry, looked up): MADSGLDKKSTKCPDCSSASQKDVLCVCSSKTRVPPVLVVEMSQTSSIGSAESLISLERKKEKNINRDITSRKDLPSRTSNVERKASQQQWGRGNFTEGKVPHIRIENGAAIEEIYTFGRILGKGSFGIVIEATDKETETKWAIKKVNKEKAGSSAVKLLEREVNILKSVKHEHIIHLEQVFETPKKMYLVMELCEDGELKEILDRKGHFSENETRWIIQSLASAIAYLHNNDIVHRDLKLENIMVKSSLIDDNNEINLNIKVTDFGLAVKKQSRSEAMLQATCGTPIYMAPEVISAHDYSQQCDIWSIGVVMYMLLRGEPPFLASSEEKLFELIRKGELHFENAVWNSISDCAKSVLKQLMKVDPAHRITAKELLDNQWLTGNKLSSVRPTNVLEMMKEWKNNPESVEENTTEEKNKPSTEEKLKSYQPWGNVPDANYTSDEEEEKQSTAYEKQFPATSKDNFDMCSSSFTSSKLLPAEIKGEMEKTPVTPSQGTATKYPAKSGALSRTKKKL
Chain of Serine/threonine-protein kinase tousled-like 1 (Homo sapiens) (Q9UKI8 whole entry): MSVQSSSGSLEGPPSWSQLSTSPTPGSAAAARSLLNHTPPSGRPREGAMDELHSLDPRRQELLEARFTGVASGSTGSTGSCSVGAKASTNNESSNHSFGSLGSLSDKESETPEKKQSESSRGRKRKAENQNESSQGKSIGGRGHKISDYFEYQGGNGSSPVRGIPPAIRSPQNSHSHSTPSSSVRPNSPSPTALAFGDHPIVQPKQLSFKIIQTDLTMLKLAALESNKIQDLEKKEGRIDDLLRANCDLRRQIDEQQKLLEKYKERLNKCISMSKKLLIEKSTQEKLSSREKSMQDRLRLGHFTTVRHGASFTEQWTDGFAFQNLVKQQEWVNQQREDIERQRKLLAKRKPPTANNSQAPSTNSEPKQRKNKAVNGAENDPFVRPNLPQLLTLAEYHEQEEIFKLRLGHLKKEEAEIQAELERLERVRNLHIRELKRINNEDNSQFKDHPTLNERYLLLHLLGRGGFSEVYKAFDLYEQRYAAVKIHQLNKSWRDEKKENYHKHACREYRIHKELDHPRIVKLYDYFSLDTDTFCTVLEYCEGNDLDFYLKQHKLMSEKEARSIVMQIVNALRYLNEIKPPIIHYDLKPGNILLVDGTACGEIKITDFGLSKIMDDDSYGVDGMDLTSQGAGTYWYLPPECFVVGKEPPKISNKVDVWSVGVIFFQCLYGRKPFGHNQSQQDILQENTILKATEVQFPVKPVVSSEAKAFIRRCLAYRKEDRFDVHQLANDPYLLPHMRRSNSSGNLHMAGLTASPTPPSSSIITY
Chain of Serine/threonine-protein kinase D2 (Homo sapiens) (Q9BZL6 whole entry): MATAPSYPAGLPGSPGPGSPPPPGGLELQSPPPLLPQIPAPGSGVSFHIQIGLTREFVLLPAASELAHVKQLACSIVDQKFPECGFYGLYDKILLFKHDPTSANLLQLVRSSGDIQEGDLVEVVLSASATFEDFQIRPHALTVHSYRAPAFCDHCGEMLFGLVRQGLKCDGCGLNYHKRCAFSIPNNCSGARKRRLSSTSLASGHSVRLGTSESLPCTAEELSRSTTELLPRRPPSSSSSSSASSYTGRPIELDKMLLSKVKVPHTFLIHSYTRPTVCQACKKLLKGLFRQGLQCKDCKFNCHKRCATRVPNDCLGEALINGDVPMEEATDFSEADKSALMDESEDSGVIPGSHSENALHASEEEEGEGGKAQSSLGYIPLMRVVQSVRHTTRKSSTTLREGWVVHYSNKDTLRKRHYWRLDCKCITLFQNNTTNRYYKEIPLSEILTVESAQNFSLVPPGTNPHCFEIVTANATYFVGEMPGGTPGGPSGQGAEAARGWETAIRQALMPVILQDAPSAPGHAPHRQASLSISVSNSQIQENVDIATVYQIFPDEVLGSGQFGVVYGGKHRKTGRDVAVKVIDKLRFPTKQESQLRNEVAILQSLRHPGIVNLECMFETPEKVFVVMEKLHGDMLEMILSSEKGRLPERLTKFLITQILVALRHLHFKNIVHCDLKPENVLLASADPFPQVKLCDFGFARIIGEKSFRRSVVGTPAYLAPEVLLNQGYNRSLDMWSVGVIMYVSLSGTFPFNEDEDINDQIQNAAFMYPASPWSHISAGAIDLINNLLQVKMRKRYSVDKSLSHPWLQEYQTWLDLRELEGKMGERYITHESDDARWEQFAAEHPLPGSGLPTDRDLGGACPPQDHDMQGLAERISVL
Chain of Histamine H2 receptor (Homo sapiens) (P25021 whole entry): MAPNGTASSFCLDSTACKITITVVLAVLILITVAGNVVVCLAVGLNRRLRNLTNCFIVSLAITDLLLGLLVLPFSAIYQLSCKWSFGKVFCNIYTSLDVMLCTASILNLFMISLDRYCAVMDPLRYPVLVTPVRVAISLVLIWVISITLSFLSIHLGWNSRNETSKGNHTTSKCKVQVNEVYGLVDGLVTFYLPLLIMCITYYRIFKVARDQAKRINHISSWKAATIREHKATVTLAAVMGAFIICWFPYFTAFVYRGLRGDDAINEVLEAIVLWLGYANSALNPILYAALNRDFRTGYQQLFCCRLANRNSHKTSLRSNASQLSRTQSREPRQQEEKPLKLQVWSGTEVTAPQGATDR

O=c1nc(-c2ccccn2)sc2ccccc12 [BTZO-1]
inactive: residual activity [1] 75% | residual activity [2] 87% | residual activity [3] 98% | residual activity [4] 100% | residual activity [5] 95% | residual activity [6] 80% | residual activity [7] 90% | residual activity [8] 84% | residual activity [9] 100% | residual activity [10] 94% | residual activity [11] 100% | residual activity [12] 100% | residual activity [13] 93% | residual activity [14] 81% | residual activity [15] 95% | residual activity [16] 97% | residual activity [17] 65% | residual activity [18] 100% | residual activity [19] 89% | residual activity [20] 74% | residual activity [21] 100% | residual activity [22] 100% | residual activity [23] 100% | residual activity [24] 89% | residual activity [25] 100% | residual activity [26] 82% | residual activity [27] 97% | residual activity [28] 89% | residual activity [29] 81% | residual activity [30] 88% | residual activity [31] 100% | residual activity [32] 100% | residual activity [33] 100% | residual activity [34] 88% | residual activity [35] 95% | residual activity [36] 92% | residual activity [37] 83% | residual activity [38] 87% | residual activity [39] 73% | residual activity [40] 100% | residual activity [41] 93% | residual activity [42] 59% | residual activity [43] 100% | inhibition [44] 24.4% | inhibition [45] 5.17%

O=C1NC(c2ccccn2)Sc2ccccc21 (stereo not given) [BTZO-4]
inactive: residual activity [1] 72% | residual activity [2] 93% | residual activity [3] 100% | residual activity [4] 100% | residual activity [5] 100% | residual activity [6] 95% | residual activity [7] 97% | residual activity [8] 92% | residual activity [9] 79% | residual activity [10] 84% | residual activity [11] 85% | residual activity [12] 100% | residual activity [13] 77% | residual activity [14] 83% | residual activity [15] 100% | residual activity [16] 93% | residual activity [17] 55% | residual activity [18] 83% | residual activity [19] 75% | residual activity [20] 68% | residual activity [21] 84% | residual activity [22] 100% | residual activity [23] 97% | residual activity [24] 100% | residual activity [25] 100% | residual activity [26] 88% | residual activity [27] 96% | residual activity [28] 88% | residual activity [29] 64% | residual activity [30] 92% | residual activity [31] 95% | residual activity [32] 100% | residual activity [33] 100% | residual activity [34] 78% | residual activity [35] 96% | residual activity [36] 85% | residual activity [37] 73% | residual activity [38] 93% | residual activity [39] 71% | residual activity [40] 85% | residual activity [41] 94% | residual activity [42] 55% | residual activity [43] 88% | inhibition [44] 24.8% | inhibition [45] 13.7%

From ChEMBL document CHEMBL4507329, “Data for DCP probe BTZO-1” (2021)
